Measured values as given in patent US3987175A, “Derivatives of phenoxy isobutyric acid having hypolipemizing and hypocholesterolemizing action” (Pierre Fabre S.A., priority 1974, dated 1976).
Counter-ions that a name gives are not always drawn.

Tests used:
[1] = Acute test: cholesterol and triglycerides 4 hours after intraperitoneal administration; assay type: in vivo; settings: rats
Procedure: The products to be studied were administered intraperitoneally to groups of identical rats; the doses were calculated on a basis of clofibrate in order to make the tests fully comparative. After a period of 4 hours, blood was removed by heart puncture and cholesterol and triglycerides determined.

[2] = Hypercholesterolemia induced by the administration of Triton WR 1339; assay type: in vivo; settings: male rats; for Cholesterol % variation / Kunkel phenol % variation: Triton 200 mg/kg IV, 18 hours
Procedure: 3. […] Immediately after the injection, the products to be tested were administered IP and new samples of blood taken 18 hours later (at the maximum of the hypocholesterolemia produced by the Triton). |P being the biochemical parameter under consideration | p Triton + product p Triton + product | - | + 18 hours at the start |1 - × 100 | p Triton p Triton | - | + 18 hours at the start

[3] = Test covering 4 days of treatment by oral administration, normal diet (cholesterol, Kunkel's phenol test); assay type: in vivo; settings: rats, fifth day
Text: 2. Test covering 4 days of treatment by oral administration. In a lot of 30 rats subjected to a normal diet, the blood samplings were effected and the determinations of cholesterol and lipoproteins (Kunkel's phenol test) were made on the fifth day.

[4] = Acute toxicity, LD50 (method of Miller and Tainter, mortality observed for 4 days); settings: mouse, in vivo, mice
Text: The above-described chemical compounds were submitted to toxicity tests. The acute toxicity of certain compounds determined by the 50% lethal dose is entered in the following Table:
The LD50 was studied in accordance with the method of Miller and Tainter, the mortality of mice being observed for 4 days.

[5] = Solubility characteristics; assay type: physicochemical
[6] = IP, nicotinic acid 140 mg/kg, 4 hours
[7] = nicotinic acid 100 mg/kg IP, HS (highly significant)
[8] = IP, clofibrate 200 mg/kg, 4 hours
[9] = clofibrate 200 mg/kg IP, NS (not significant)
[10] = IP, F 1393 340 mg/kg, 4 hours (comparison with reference products)
[11] = acute dose study, 340 mg/kg, HS (highly significant)

In the case of `O=C(O)c1cccnc1` [Nicotinic acid, nicotinic acid], the “Cholesterol % variation referred to the control” value (from here on “Cholesterol % variation referred”) [1, 6] is reported as -25%, the “Triglycerides % variation referred to the control” value (shortened to “Triglycerides % variation referred”) [1, 6] is reported as -47% and the Cholesterol % variation [2, 7] is reported as -67%. The “Kunkel phenol % variation” value [2, 7] was -75% and the “Cholesterol % variation referred” value ([3]; nicotinic acid 100 mg/kg) was -22%.

`CC(C)(Oc1ccc(Cl)cc1)C(=O)OCCNC(=O)c1ccc[n+]([O-])c1` [F 1416, N-oxide of N-nicotinoyl, O-(parachloro phenoxy) isobutanoyl ethanol amine] showed an LD50 at 96 h ([4]; po, by mouth) of 2400 mg/kg, an LD50 at 96 h ([4]; ip) of no less than 1000 mg/kg and a Solubility in ethanol [5] of 3%. For the same molecule, the “Solubility in propylene alcohol” value ([5]; propylene alcohol) was 1% and the “Solubility in water (in words)” value ([5]; water) was “Insoluble”.

With `CCOC(=O)C(C)(C)Oc1ccc(Cl)cc1` [Clofibrate] the “Cholesterol % variation referred” value [1, 8] was -17%, the “Triglycerides % variation referred” value [1, 8] was “+23%” and the Cholesterol % variation [2, 9] was -15%. The “Kunkel phenol % variation” value [2, 9] was -23%, the “Activity in the Triton test (in words)” value ([2]; Triton WR 1339) was “inactive” and the “Cholesterol % variation referred” value ([3]; clofibrate 200 mg/kg) was -34%. For the same molecule, the “Kunkel phenol test % variation referred to the control” value ([3]; clofibrate 200 mg/kg) was -29%.

In the case of `CC(C)(Oc1ccc(Cl)cc1)C(=O)OCCNC(=O)c1cccnc1` [F 1393, Hydrochloride of N-nicotinoyl, O-(p-chloro phenoxy) isobutanoyl ethanol amine], the “Cholesterol % variation referred” value [1, 10] is reported as -32%, the “Triglycerides % variation referred” value [1, 10] is reported as -43% and the “Triglycerides % variation referred” value ([1]; acute dose study, 50 mg/kg, HS (highly significant)) is reported as -26%. For the same molecule, the “Cholesterol % variation referred” value ([1]; acute dose study, 50 mg/kg, NS (not significant)) was -10%, the “Cholesterol % variation referred” value ([1]; acute dose study, 100 mg/kg) was -0% and the “Triglycerides % variation referred” value ([1]; acute dose study, 100 mg/kg, HS (highly significant)) was -29%. For the same molecule, the “Cholesterol % variation referred” value ([1]; acute dose study, 200 mg/kg, HS (highly significant)) was -22%, the “Triglycerides % variation referred” value ([1]; acute dose study, 200 mg/kg, S) was -19% and the “Cholesterol % variation referred” value [1, 11] was -35%. For the same molecule, the “Triglycerides % variation referred” value [1, 11] was -43%, the LD50 at 96 h ([4]; po, by mouth) was 3100 mg/kg and the LD50 at 96 h ([4]; ip) was 560 mg/kg. For the same molecule, the “Solubility in N-methyl pyrrolidone” value ([5]; N-methyl pyrrolidone) was 16%, the Solubility in ethanol [5] was 3.5% and the “Solubility in propylene glycol” value ([5]; propylene glycol) was 5%. For the same molecule, the solubility ([5]; water) was 120 mg/mL, the Cholesterol % variation ([2]; F 1393 340 mg/kg IP, HS (highly significant)) was -68% and the “Kunkel phenol % variation” value ([2]; F 1393 340 mg/kg IP, S) was -89%. The “Cholesterol % variation referred” value ([3]; F 1393 340 mg/kg) was -44% and the “Kunkel phenol test % variation referred to the control” value ([3]; F 1393 340 mg/kg) was -52%.
